Target: T1, GSG2 (Haspin) (Homo sapiens, UniProt Q8TF76)
T1 construct: purchased Thermo Fisher Scientific (Life Technologies) SelectScreen
Assay: SelectScreen Adapta
Assay type: biochemical
In short: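 Compound tested in SelectScreen activity assays, Z'LYTE for CSF1R, CDK1/cyclin B and MAP2K6 and Adapta for CAMK1. ATP for CAMK1 was listed as 10, and Km app was used for CSF1R. Results are expressed in percent.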

T1 sequence (Q8TF76 whole entry): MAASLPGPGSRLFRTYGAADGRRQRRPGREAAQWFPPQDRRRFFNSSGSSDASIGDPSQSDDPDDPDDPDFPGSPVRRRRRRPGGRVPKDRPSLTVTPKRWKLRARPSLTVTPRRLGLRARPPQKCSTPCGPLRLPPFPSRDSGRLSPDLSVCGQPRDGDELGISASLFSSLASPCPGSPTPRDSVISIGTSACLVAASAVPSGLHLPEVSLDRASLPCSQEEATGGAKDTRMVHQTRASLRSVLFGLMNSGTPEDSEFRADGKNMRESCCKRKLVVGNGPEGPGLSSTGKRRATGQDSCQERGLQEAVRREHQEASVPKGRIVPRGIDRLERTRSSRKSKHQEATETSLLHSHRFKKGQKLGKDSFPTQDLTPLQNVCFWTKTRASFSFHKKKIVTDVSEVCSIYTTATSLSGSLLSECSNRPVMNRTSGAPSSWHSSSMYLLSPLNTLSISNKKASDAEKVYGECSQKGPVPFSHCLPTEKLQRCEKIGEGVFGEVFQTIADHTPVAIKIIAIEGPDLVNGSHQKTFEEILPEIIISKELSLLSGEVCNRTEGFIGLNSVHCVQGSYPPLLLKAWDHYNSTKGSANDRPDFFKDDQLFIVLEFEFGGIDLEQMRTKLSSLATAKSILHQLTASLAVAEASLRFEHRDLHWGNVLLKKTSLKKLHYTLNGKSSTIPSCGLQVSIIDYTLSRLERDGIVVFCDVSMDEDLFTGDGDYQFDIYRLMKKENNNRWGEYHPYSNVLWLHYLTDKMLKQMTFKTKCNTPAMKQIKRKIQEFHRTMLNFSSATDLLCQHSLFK

Q: `CN(C(=O)CN1CCOCC1)c1ccc2sc3c(-c4cccc5c(=O)cc(N6CC7CCC(C6)O7)oc45)cccc3c2c1` [NU5455] was tested. Which inhibition at 1 µM did it give?
A: The inhibition at 1 µM was -15%.

Source: publication PMC6934184, “Selective DNA-PKcs inhibition extends the therapeutic index of localized radiotherapy and chemotherapy” (The Journal of Clinical Investigation, 2019)
